The values that follow come from patent publication US20260317340A1, “COMPOUNDS, COMPOSITIONS, AND METHODS OF TREATING DISORDERS” (Chengdu Anticancer Bioscience, Ltd., priority 2023, published 2026).

In test [1] the test system is RPE-Neo or RPE-MYC or RPE-MYC expressing an EGFP-Histone 2B fusion protein. The experiment in a line: Phenotypic screening assay: arrest in mitosis, change in DNA content (polyploidy), cell death. The format is cell-based. The note with it: 20 nM to 20 μM, 24, 48 or 72 hours. In short, it runs like this: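 RPE-Neo, RPE-MYC or RPE-MYC EGFP-H2B cells plated 18-24 h before treatment with compounds at 20 nM to 20 μM. Mitotic arrest or DNA-content change scored by automated imaging at 24, 48 or 72 h; proliferation by MTT. Values binned into A–D ranges.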

Test [2] relates to RPE-Neo or RPE-MYC cells. As to the kind of experiment: MTT assay of cellular proliferation (proliferative arrest). The format is cell-based. The note with it: read-out: Min. Effective conc. for Proliferative arrest (>50%).
Setting [3] is: read-out: Min. Effective conc. for Along with Cell Death.
Where [4] appears, read: ≥5%, read-out: Min. Effective conc. for Mitotic Arrest (≥5%).
The mark [5] stands for this setting: ≥5%, read-out: Min. Effective conc. for Polyploidy (≥5%).

Where two headings read alike, the source gives them in different places.

With `CNC(=O)c1cc(-c2ccc3c(c2)N(Cc2ccc(OC)cc2)C(=O)CC(c2ncc(C)o2)=C3)ccn1` [Compound 60, 4-(1-(4-Methoxybenzyl)-4-(5-methyloxazol-2-yl)-2-oxo-2,3-dihydro-1H-benzo[b]azepin-8-yl)-N-methylpicolinamide], the minimal effective concentration in test [1] (setting [3]), in test [1] (setting [4]), in test [1] (setting [5]) and in test [2] was 0.001 to 1 µM in each case.

For `COc1ccc(CN2C(=O)CC(c3ncc(C)o3)=Cc3ccc(-c4ccn(C)c(=O)c4)cc32)cc1` [Compound 62, 1-(4-Methoxybenzyl)-8-(1-methyl-2-oxo-1,2-dihydropyridin-4-yl)-4-(5-methyloxazol-2-yl)-1,3-dihydro-2H-benzo[b]azepin-2-one], the minimal effective concentration in test [1] (setting [3]), in test [1] (setting [4]), in test [1] (setting [5]) and in test [2] was 0.001 to 1 µM throughout.

In the case of `COc1ccc(CN2C(=O)CC(c3ncc(C)o3)=Cc3ccc(-c4cnn(CCN5CCCC5)c4)cc32)cc1` [Compound 64, 1-(4-methoxybenzyl)-4-(5-methyloxazol-2-yl)-8-(1-(2-(pyrrolidin-1-yl)ethyl)-1H-pyrazol-4-yl)-1,3-dihydro-2H-benzo[b]azepin-2-one], the minimal effective concentration in test [1] (setting [3]), in test [1] (setting [4]), in test [1] (setting [5]) and in test [2] was 0.001 to 1 µM throughout.

Turning to `COc1ccc(CN2C(=O)CC(c3ncc(C)o3)=Cc3ccc(-c4cnn(CCN(C)C)c4)cc32)cc1` [Compound 66, 8-(1-(2-(Dimethylamino)ethyl)-1H-pyrazol-4-yl)-1-(4-methoxybenzyl)-4-(5-methyloxazol-2-yl)-1,3-dihydro-2H-benzo[b]azepin-2-one], the minimal effective concentration in test [1] (setting [3]), in test [1] (setting [4]), in test [1] (setting [5]) and in test [2] was 0.001 to 1 µM in each case.

For the molecule `CNC(=O)Cn1cc(-c2ccc3c(c2)N(Cc2ccc(OC)cc2)C(=O)CC(c2ncc(C)o2)=C3)cn1` [Compound 67, 2-(4-(1-(4-Methoxybenzyl)-4-(5-methyloxazol-2-yl)-2-oxo-2,3-dihydro-1H-benzo[b]azepin-8-yl)-1H-pyrazol-1-yl)-N-methylacetamide], the minimal effective concentration in test [1] (setting [3]), in test [1] (setting [4]), in test [1] (setting [5]) and in test [2] was 0.001 to 1 µM throughout.

In the case of `COc1ccc(CN2C(=O)CC(c3ncc(C)o3)=Cc3ccc(-c4cnn(CC#N)c4)cc32)cc1` [Compound 68, 2-(4-(1-(4-methoxybenzyl)-4-(5-methyloxazol-2-yl)-2-oxo-2,3-dihydro-1H-benzo[b]azepin-8-yl)-1H-pyrazol-1-yl)acetonitrile], the minimal effective concentration in test [1] (setting [3]), in test [1] (setting [4]), in test [1] (setting [5]) and in test [2] was 0.001 to 1 µM throughout.

`COc1ccc(CN2C(=O)CC(c3ncc(C)o3)=Cc3ccc(-c4cnn(CC(=O)O)c4)cc32)cc1` [Compound 69, 2-(4-(1-(4-Methoxybenzyl)-4-(5-methyloxazol-2-yl)-2-oxo-2,3-dihydro-1H-benzo[b]azepin-8-yl)-1H-pyrazol-1-yl)acetic acid]: the minimal effective concentration in test [1] (setting [3]), in test [1] (setting [4]), in test [1] (setting [5]) and in test [2] was 1 to 10 µM in each case.

Consider `COc1ccc(CN2C(=O)CC(c3ncc(C)o3)=Cc3ccc(-c4cnn(C5CNC5)c4)cc32)cc1` [Compound 70, 8-(1-(Azetidin-3-yl)-1H-pyrazol-4-yl)-1-(4-methoxybenzyl)-4-(5-methyloxazol-2-yl)-1,3-dihydro-2H-benzo[b]azepin-2-one], for which the minimal effective concentration in test [1] (setting [3]), in test [1] (setting [4]), in test [1] (setting [5]) and in test [2] was 0.001 to 1 µM in each case.

As to `CCOC(=O)Cn1cc(-c2ccc3c(c2)N(Cc2ccc(OC)cc2)C(=O)CC(c2ncc(C)o2)=C3)cn1` [Compound 71, Ethyl 2-(4-(1-(4-methoxybenzyl)-4-(5-methyloxazol-2-yl)-2-oxo-2,3-dihydro-1H-benzo[b]azepin-8-yl)-1H-pyrazol-1-yl)acetate], the minimal effective concentration in test [1] (setting [3]), in test [1] (setting [4]), in test [1] (setting [5]) and in test [2] was 0.001 to 1 µM each time.

Turning to `COc1ccc(CN2C(=O)CC(c3ncc(C)o3)=Cc3ccc(-c4cnn(C(C)C(N)=O)c4)cc32)cc1` (stereo not drawn) [Compound 72], the minimal effective concentration in test [1] (setting [3]), in test [1] (setting [4]), in test [1] (setting [5]) and in test [2] was 0.001 to 1 µM in each case.

On to `COc1ccc(CN2C(=O)CC(c3ncc(C)o3)=Cc3ccc(-c4cnn(CC(=O)N(C)C)c4)cc32)cc1` [Compound 73, 2-(4-(1-(4-Methoxybenzyl)-4-(5-methyloxazol-2-yl)-2-oxo-2,3-dihydro-1H-benzo[b]azepin-8-yl)-1H-pyrazol-1-yl)-N,N-dimethylacetamide], for which the minimal effective concentration in test [1] (setting [3]), in test [1] (setting [4]), in test [1] (setting [5]) and in test [2] was 0.001 to 1 µM each time.

With `CCOC(=O)C(C)n1cc(-c2ccc3c(c2)N(Cc2ccc(OC)cc2)C(=O)CC(c2ncc(C)o2)=C3)cn1` (stereo not drawn) [Compound 74, Ethyl 2-(4-(1-(4-methoxybenzyl)-4-(5-methyloxazol-2-yl)-2-oxo-2,3-dihydro-1H-benzo[b]azepin-8-yl)-1H-pyrazol-1-yl)propanoate], the minimal effective concentration in test [1] (setting [3]), in test [1] (setting [4]), in test [1] (setting [5]) and in test [2] was 0.001 to 1 µM in each case.

As for `COc1ccc(CN2C(=O)CC(c3ncc(C)o3)=Cc3ccc(-c4cnn(C(C)C(=O)O)c4)cc32)cc1` (stereo not drawn) [Compound 75, 2-(4-(1-(4-Methoxybenzyl)-4-(5-methyloxazol-2-yl)-2-oxo-2,3-dihydro-1H-benzo[b]azepin-8-yl)-1H-pyrazol-1-yl)propanoic acid], the minimal effective concentration in test [1] (setting [3]), in test [1] (setting [4]), in test [1] (setting [5]) and in test [2] was 1 to 10 µM each time.

Turning to `COc1ccc(CN2C(=O)CC(c3ncc(C)o3)=Cc3ccc(-c4cnn(C(C)(C)C(N)=O)c4)cc32)cc1` [Compound 76, 2-(4-(1-(4-Methoxybenzyl)-4-(5-methyloxazol-2-yl)-2-oxo-2,3-dihydro-1H-benzo[b]azepin-8-yl)-1H-pyrazol-1-yl)-2-methylpropanamide], the minimal effective concentration in test [1] (setting [3]), in test [1] (setting [4]), in test [1] (setting [5]) and in test [2] was 0.001 to 1 µM in each case.

Turning to `[2H]C([2H])([2H])OCCCn1cc(-c2ccc3c(c2)N(Cc2ccc(OC)cc2)C(=O)CC(c2ncc(C)o2)=C3)cn1` [Compound 77, 8-(1-(3-(Methoxy-d3)propyl)-1H-pyrazol-4-yl)-1-(4-methoxybenzyl)-4-(5-methyloxazol-2-yl)-1,3-dihydro-2H-benzo[b]azepin-2-one], the minimal effective concentration in test [1] (setting [3]), in test [1] (setting [4]), in test [1] (setting [5]) and in test [2] was 0.001 to 1 µM in each case.
